Columns and labels:
Experiment in all cases: relative viability vs DMSO control (72 h) (fraction); higher = more viable cells
A204 = tested on: A204
Procedure, shortened: (§1)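 Relative viability was measured with ATPLite and expressed as percent growth, averaged across up to triplicate wells. Sarcoma cell lines had been seeded in 384-well plates to reach 80–90% confluence, dosed after 24 h, and incubated 72 h at 37 °C, 5% CO2. All data were rescaled on a scale where 1 is full and 0 is none.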

G401 = tested on: G401
Procedure, shortened: as §1

HS729 = tested on: HS729
Procedure, shortened: as §1

HT1080 = tested on: HT1080
Procedure, shortened: as §1

KHOS-NP = tested on: KHOS-NP
Procedure, shortened: as §1

RD-ES = tested on: RD-ES
Procedure, shortened: as §1

SK-ES-1 = tested on: SK-ES-1
Procedure, shortened: as §1

SK-LMS-1 = tested on: SK-LMS-1
Procedure, shortened: as §1

SW684 = tested on: SW684
Procedure, shortened: as §1

SW872 = tested on: SW872
Procedure, shortened: as §1

SW982 = tested on: SW982
Procedure, shortened: as §1

VA-ES-BJ = tested on: VA-ES-BJ
Procedure, shortened: as §1

CC(C)NC[C@@H](C(=O)N1CCN(c2ncnc3c2[C@H](C)C[C@H]3O)CC1)c1ccc(Cl)cc1 [Ipatasertib]
Details	relative viability
A204, 0.00017 µM	1.06
A204, 0.00051 µM	1.08
A204, 0.00152 µM	1.05
A204, 0.00457 µM	1.05
A204, 0.01372 µM	1.05
A204, 0.04115 µM	0.992
A204, 0.1235 µM	0.953
A204, 0.3704 µM	0.751
A204, 1.111 µM	0.711
A204, 3.333 µM	0.621
A204, 10 µM	0.509
G401, 0.00017 µM	1.03
G401, 0.00051 µM	1.04
G401, 0.00152 µM	1.01
G401, 0.00457 µM	0.956
G401, 0.01372 µM	0.942
G401, 0.04115 µM	0.89
G401, 0.1235 µM	0.863
G401, 0.3704 µM	0.786
G401, 1.111 µM	0.707
G401, 3.333 µM	0.655
G401, 10 µM	0.613
HS729, 0.00017 µM	1
HS729, 0.00051 µM	0.969
HS729, 0.00152 µM	0.91
HS729, 0.00457 µM	0.916
HS729, 0.01372 µM	0.844
HS729, 0.04115 µM	0.849
HS729, 0.1235 µM	0.802
HS729, 0.3704 µM	0.726
HS729, 1.111 µM	0.643
HS729, 3.333 µM	0.532
HS729, 10 µM	0.49
HT1080, 0.00017 µM	1.1
HT1080, 0.00051 µM	1.08
HT1080, 0.00152 µM	1.1
HT1080, 0.00457 µM	1.05
HT1080, 0.01372 µM	1.07
HT1080, 0.04115 µM	1.04
HT1080, 0.1235 µM	1.1
HT1080, 0.3704 µM	1.07
HT1080, 1.111 µM	1.055
HT1080, 3.333 µM	0.997
HT1080, 10 µM	0.994
KHOS-NP, 0.00017 µM	1.1
KHOS-NP, 0.00051 µM	1.11
KHOS-NP, 0.00152 µM	1.11
KHOS-NP, 0.00457 µM	1.09
KHOS-NP, 0.01372 µM	1.06
KHOS-NP, 0.04115 µM	1.06
KHOS-NP, 0.1235 µM	1.067
KHOS-NP, 0.3704 µM	1.04
KHOS-NP, 1.111 µM	1.04
KHOS-NP, 3.333 µM	0.994
KHOS-NP, 10 µM	0.957
RD-ES, 0.00017 µM	0.9447
RD-ES, 0.00051 µM	0.932
RD-ES, 0.00152 µM	0.954
RD-ES, 0.00457 µM	0.9221
RD-ES, 0.01372 µM	0.925
RD-ES, 0.04115 µM	0.869
RD-ES, 0.1235 µM	0.844
RD-ES, 0.3704 µM	0.7432
RD-ES, 1.111 µM	0.601
RD-ES, 3.333 µM	0.52
RD-ES, 10 µM	0.4354
SK-ES-1, 0.00017 µM	1.03
SK-ES-1, 0.00051 µM	1.04
SK-ES-1, 0.00152 µM	1.01
SK-ES-1, 0.00457 µM	1
SK-ES-1, 0.01372 µM	1.02
SK-ES-1, 0.04115 µM	0.947
SK-ES-1, 0.1235 µM	0.944
SK-ES-1, 0.3704 µM	0.79
SK-ES-1, 1.111 µM	0.683
SK-ES-1, 3.333 µM	0.529
SK-ES-1, 10 µM	0.473
SK-LMS-1, 0.00017 µM	0.971
SK-LMS-1, 0.00051 µM	0.95
SK-LMS-1, 0.00152 µM	0.96
SK-LMS-1, 0.00457 µM	1
SK-LMS-1, 0.01372 µM	0.954
SK-LMS-1, 0.04115 µM	0.959
SK-LMS-1, 0.1235 µM	0.909
SK-LMS-1, 0.3704 µM	0.8304
SK-LMS-1, 1.111 µM	0.651
SK-LMS-1, 3.333 µM	0.594
SK-LMS-1, 10 µM	0.55
SW684, 0.00017 µM	1.07
SW684, 0.00051 µM	1.11
SW684, 0.00152 µM	1.11
SW684, 0.00457 µM	1.09
SW684, 0.01372 µM	1.09
SW684, 0.04115 µM	1.08
SW684, 0.1235 µM	0.994
SW684, 0.3704 µM	0.855
SW684, 1.111 µM	0.664
SW684, 3.333 µM	0.5598
SW684, 10 µM	0.49
SW872, 0.00017 µM	1.01
SW872, 0.00051 µM	1.04
SW872, 0.00152 µM	1.01
SW872, 0.00457 µM	1.01
SW872, 0.01372 µM	0.922
SW872, 0.04115 µM	0.91
SW872, 0.1235 µM	0.843
SW872, 0.3704 µM	0.712
SW872, 1.111 µM	0.611
SW872, 3.333 µM	0.491
SW872, 10 µM	0.415
SW982, 0.00017 µM	0.991
SW982, 0.00051 µM	0.985
SW982, 0.00152 µM	1.02
SW982, 0.00457 µM	1
SW982, 0.01372 µM	0.945
SW982, 0.04115 µM	0.949
SW982, 0.1235 µM	0.962
SW982, 0.3704 µM	0.881
SW982, 1.111 µM	0.824
SW982, 3.333 µM	0.745
SW982, 10 µM	0.652
VA-ES-BJ, 0.00017 µM	1.07
VA-ES-BJ, 0.00051 µM	1.04
VA-ES-BJ, 0.00152 µM	1.03
VA-ES-BJ, 0.00457 µM	1.022
VA-ES-BJ, 0.01372 µM	0.955
VA-ES-BJ, 0.04115 µM	0.8984
VA-ES-BJ, 0.1235 µM	0.819
VA-ES-BJ, 0.3704 µM	0.666
VA-ES-BJ, 1.111 µM	0.492
VA-ES-BJ, 3.333 µM	0.418
VA-ES-BJ, 10 µM	0.368

Source: the supplement of paper PMC10883282
